In patent US8778919B2, “Cyclic anilino—pyridinotriazines” (Janssen Pharmaceutica NV, priority 2005, dated 2014):

Columns and labels:
[1] = biological target: CDK6/cyclinD3 human (Homo sapiens, UniProt Q00534); experiment: Kinase profiling C3.7 CDK6/cyclinD3 human; type: biochemical; conditions: CDK6/cyclinD3, test concentration of 10^−6 M
Protocol: The in vitro inhibition of a panel of kinases was assessed using either the glass-fiber filter technology as described by Davies, S. P. et al., Biochem J. (2000), 351; p. 95-105. In the glass-fiber filter technology the activity of the kinase of interest is measured using an appropriate substrate that is incubated with the aforementioned kinase protein in the presence of (^33P) radiolabeled ATP. (^33P) Phosporylation of the substrate is subsequently measured as radioactivity bound on a glassfiber-filter.
All kinases are pre-diluted to a 10× working concentration prior to addition into the assay. The composition of the dilution buffer for each kinase is detailed below.
All substrates are dissolved and diluted to working stocks in de-ionised water, apart from histone H1 that is stored in 10× working stock in 20 mM MOPS pH 7.4.
In a final reaction volume of 25 μl, CDK6/cyclinD3 human (5-10 mU) is incubated with 8 mM MOPS pH 7.0, 0.2 mM EDTA, 0.1 mg/ml histone H1, 10 mM MgAcetate and [γ-^33P-ATP] (specific activity approx. 500 cpm/pmol, concentration as required). The reaction is initiated by the addition of the MgATP mix. After incubation for 40 minutes at room temperature, the reaction is stopped by the addition of 5 μl of a 3% phosphoric acid solution. 10 μl of the reaction is then spotted onto a P30 filtermat and washed three times for 5 minutes in 75 mM phosphoric acid and once in methanol prior to drying and scintillation counting.

[2] = system: Chang cells; experiment: GSK-3 cellular assay (C2): 14C-D-glucose incorporation into glycogen; type: cell-based; conditions: increase in D-glucose incorporation into glycogen, test concentration of 10^−6 M
Protocol: Test compounds were tested for their ability to increase the incorporation of ^14C-D-glucose into glycogen in living cells. To do this, Chang cells (360,000 cells/well) were cultured in 0.5 ml of MEM Rega 3 medium supplemented with 10% fetal calf serum, 1% L-glutamine and 2% sodium carbonate. After 3 days, cells were washed with 0.5 ml of phosphate-buffered saline and overlayed with 1 ml of serum- and glucose-free DMEM medium. Then, 2 μl of compound in DMSO and 50 μl substrate (3 mM glucose and 0.5 μCi ^14C-D-glucose were added and the cultures were incubated for 90 min. Cells were then extracted with 0.5 ml of 20% KOH for 60 min at 37° C. and the cell lysates were transferred to 10 ml tubes containing 300 μl of 1 mg/ml glycogen as […]. Following the addition of 2 ml ethanol, total glycogen was precipitated overnight at −20° C. and the precipitates were recovered by centrifugation. Precipitates were then resuspended in 1 ml of water and transferred to scintillation counter vials. and the amount of ^14C-D-glucose incorporation into glycogen was measured by scintillation counting. Scores for the compounds according to the invention, were obtained at a test concentration of 10^−6 M. Score 1=10-30% increase, Score 2=30-60% increase, Score 3=60-80% increase and Score 4=>80% increase in D-glucose incorporation.

Sequence of CDK6/cyclinD3 human (Q00534 whole entry): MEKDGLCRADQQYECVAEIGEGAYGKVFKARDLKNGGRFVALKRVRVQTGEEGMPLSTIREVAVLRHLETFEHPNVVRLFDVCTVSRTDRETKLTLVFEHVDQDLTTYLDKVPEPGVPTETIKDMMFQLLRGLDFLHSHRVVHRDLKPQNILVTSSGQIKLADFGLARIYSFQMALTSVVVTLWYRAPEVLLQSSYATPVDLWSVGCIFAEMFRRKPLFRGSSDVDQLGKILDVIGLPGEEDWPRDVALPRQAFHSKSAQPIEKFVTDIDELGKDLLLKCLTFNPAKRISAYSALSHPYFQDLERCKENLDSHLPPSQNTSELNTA
Sequence of CDK6/cyclinD3 human (P30281 whole entry partner): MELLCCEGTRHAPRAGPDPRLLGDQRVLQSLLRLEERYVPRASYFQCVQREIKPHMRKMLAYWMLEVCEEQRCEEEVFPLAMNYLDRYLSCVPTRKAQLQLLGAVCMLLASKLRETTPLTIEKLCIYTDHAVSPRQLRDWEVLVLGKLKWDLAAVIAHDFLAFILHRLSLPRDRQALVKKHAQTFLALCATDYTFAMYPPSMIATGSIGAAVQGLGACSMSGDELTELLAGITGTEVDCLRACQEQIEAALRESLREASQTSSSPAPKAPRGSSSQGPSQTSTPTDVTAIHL

Structure (SMILES) | C3.7 score [1] | melting point [°C] | C2 Score [2]
CN1CC(=O)NCC#Cc2cc(ccn2)-c2ncnc(n2)Nc2cccc(c2)C1 [Compound 1] | 4 (Score 4 = >80% inhibition) | 267.5 to 269.3 | 3 (Score 3=60-80% increase)
CN1CC(=O)NC/C(Cl)=C/c2cc(ccn2)-c2ncnc(n2)Nc2cccc(c2)C1 [Compound 2] | 4 (Score 4 = >80% inhibition) | – | 4 (Score 4=>80% increase in D-glucose incorporation)
CN1CCC(=O)NCCCc2cc(ccn2)-c2ncnc(n2)Nc2cccc(c2)C1 [Compound 3] | 2 (Score 2 = 30-60% inhibition) | – | –
CN1CCCc2cc(ccn2)-c2ncnc(n2)Nc2cccc(c2)CNC(=O)C1 [Compound 7] | 1 (Score 1 = 10-30% inhibition) | 201.9 to 203.3 | 3 (Score 3=60-80% increase)
CN1CC(=O)NCCCc2cc(ccn2)-c2ncnc(n2)Nc2cccc(c2)C1 [Compound 8] | 2 (Score 2 = 30-60% inhibition) | – | 4 (Score 4=>80% increase in D-glucose incorporation)
O=C1CN2CCN(CC2)Cc2cccc(c2)Nc2ncnc(n2)-c2ccnc(c2)CCCN1 [Compound 9] | 1 (Score 1 = 10-30% inhibition) | – | 4 (Score 4=>80% increase in D-glucose incorporation)
CN1CC(=O)NCCCc2cc(ccn2)-c2ncnc(n2)Nc2cccc(c2)C1 [Compound 10] | 4 (Score 4 = >80% inhibition) | – | 4 (Score 4=>80% increase in D-glucose incorporation)
CN1CCN(CCN2CCC(=O)NCCCc3cc(ccn3)-c3ncnc(n3)Nc3cccc(c3)C2)CC1 [Compound 11] | 1 (Score 1 = 10-30% inhibition) | – | –
O=C1NCCCc2cc(ccn2)-c2ncnc(n2)Nc2cccc(c2)CN2CCCC12 (centres unmarked) [Compound 12] | 1 (Score 1 = 10-30% inhibition) | – | –
CN1CCCC(=O)NCCCc2cc(ccn2)-c2ncnc(n2)Nc2cccc(c2)C1 [Compound 13] | 1 (Score 1 = 10-30% inhibition) | – | –
O=C1NCCCc2cc(ccn2)-c2ncnc(n2)Nc2cccc(c2)CN2C[C@H](O)C[C@@H]12 [Compound 14] | 1 (Score 1 = 10-30% inhibition) | – | –
O=C1NCCCc2cc(ccn2)-c2ncnc(n2)Nc2cccc(c2)CN2CCCC1C2 (centres unmarked) [Compound 15] | 1 (Score 1 = 10-30% inhibition) | – | –
CCN1CCCc2cc(ccn2)-c2ncnc(n2)Nc2cccc(c2)CCNC(=O)C1 [Compound 30] | 1 (Score 1 = 10-30% inhibition) | – | 4 (Score 4=>80% increase in D-glucose incorporation)
CN1CC(=O)NCCCc2cc(ccn2)-c2ncnc(n2)Nc2cc(Cl)cc(c2)C1 [Compound 33] | 3 (Score 3 = 60-80% inhibition) | – | 4 (Score 4=>80% increase in D-glucose incorporation)
CCN1CC(=O)NCCCc2cc(ccn2)-c2ncnc(n2)Nc2cc(Cl)cc(c2)C1 [Compound 34] | 2 (Score 2 = 30-60% inhibition) | – | 4 (Score 4=>80% increase in D-glucose incorporation)
O=C1CCN2CCN(CC2)Cc2cccc(c2)Nc2ncnc(n2)-c2ccnc(c2)CCCN1 [Compound 35] | 3 (Score 3 = 60-80% inhibition) | – | 4 (Score 4=>80% increase in D-glucose incorporation)
O=C1CN2CCN(CC2)Cc2cccc(c2)Nc2ncnc(n2)-c2ccnc(c2)CCCN1 [Compound 36] | 1 (Score 1 = 10-30% inhibition) | – | 4 (Score 4=>80% increase in D-glucose incorporation)
O=C1CN2CCN(CC2)Cc2cc(Cl)cc(c2)Nc2ncnc(n2)-c2ccnc(c2)CCCN1 [Compound 41] | 1 (Score 1 = 10-30% inhibition) | – | 4 (Score 4=>80% increase in D-glucose incorporation)
O=C1NCCCc2cccc(c2)-c2ncnc(n2)Nc2cccc(c2)CN[C@H]1CO [Compound 46] | 1 (Score 1 = 10-30% inhibition) | – | 4 (Score 4=>80% increase in D-glucose incorporation)
CCN1CC(=O)NCCCc2cccc(c2)-c2ncnc(n2)Nc2cccc(c2)C1 [Compound 54] | 1 (Score 1 = 10-30% inhibition) | – | 4 (Score 4=>80% increase in D-glucose incorporation)
O=C1CN2CCN(CC2)Cc2cccc(c2)Nc2ncnc(n2)-c2ccc(F)c(c2)CCCN1 [Compound 66] | – | – | 4 (Score 4=>80% increase in D-glucose incorporation)
O=C1NCCCc2cc(ccc2F)-c2ncnc(n2)Nc2cc(Cl)cc(c2)CN[C@H]1CO [Compound 71] | 2 (Score 2 = 30-60% inhibition) | – | 4 (Score 4=>80% increase in D-glucose incorporation)
O=C1NCCCc2cncc(c2)-c2ncnc(n2)Nc2cccc(c2)CN[C@H]1CO [Compound 81] | 1 (Score 1 = 10-30% inhibition) | – | 4 (Score 4=>80% increase in D-glucose incorporation)
